Results reported in the kinase profiling compilation of Christmann-Franck et al. (2016).

How the values were obtained:
Test in all cases: radiometric filter-binding kinase assay
[1] = biological target: MAPKAPK3 (human) (UniProt Q16644)
[2] = biological target: FLT1 (human) (UniProt P17948)
[3] = biological target: MAPK15 (human) (UniProt Q8TD08)
[4] = biological target: TAOK1 (human) (UniProt Q7L7X3)
[5] = biological target: MELK (human) (UniProt Q14680)
[6] = biological target: RPS6KA3 KD1 KD2 (human) (UniProt P51812)
[7] = biological target: BRSK1 (human) (UniProt Q8TDC3)
[8] = biological target: RIPK2 (human) (UniProt O43353)
[9] = biological target: GCK (human) (UniProt Q12851)
[10] = biological target: MAP2K6 (human) (UniProt P52564)
[11] = biological target: SRPK1 (human) (UniProt Q96SB4)
[12] = biological target: MINK1 (human) (UniProt Q8N4C8)
[13] = biological target: PRKCA (human) (UniProt P17252)
[14] = biological target: AURKA (human) (UniProt O14965)
[15] = biological target: PHKG1 (human) (UniProt Q16816)
[16] = biological target: DYRK2 (human) (UniProt Q92630)
[17] = biological target: EPHA2 (human) (UniProt P29317)
[18] = test system: SGK1 (human), O00141 [S422D]
[19] = biological target: BTK (human) (UniProt Q06187)
[20] = biological target: EEF2K (human) (UniProt O00418)
[21] = biological target: PIM3 (human) (UniProt Q86V86)
[22] = test system: PAK2 (human), Q13177 [T402E]
[23] = biological target: MST4 (human) (UniProt Q9P289)
[24] = biological target: MAP2K2 (human) (UniProt P36507)
[25] = biological target: MAPKAPK5 (human) (UniProt Q8IW41)
[26] = biological target: CSNK2A1 (human) (UniProt P68400)
[27] = biological target: FGFR1 (human) (UniProt P11362)
[28] = biological target: INSRR (human) (UniProt P14616)
[29] = biological target: MAPK10 (human) (UniProt P53779)
[30] = biological target: CHEK1 (human) (UniProt O14757)
[31] = biological target: CDK2 CCNA2 (human) (UniProt P20248+P24941)
[32] = biological target: PIM2 (human) (UniProt Q9P1W9)
[33] = biological target: AURKB (human) (UniProt Q96GD4)
[34] = biological target: MAPK12 (human) (UniProt P53778)
[35] = biological target: PRKACA (human) (UniProt P17612)
[36] = biological target: ERBB4 (human) (UniProt Q15303)

MST4 (human), sequence (Q9P289 whole entry, looked up): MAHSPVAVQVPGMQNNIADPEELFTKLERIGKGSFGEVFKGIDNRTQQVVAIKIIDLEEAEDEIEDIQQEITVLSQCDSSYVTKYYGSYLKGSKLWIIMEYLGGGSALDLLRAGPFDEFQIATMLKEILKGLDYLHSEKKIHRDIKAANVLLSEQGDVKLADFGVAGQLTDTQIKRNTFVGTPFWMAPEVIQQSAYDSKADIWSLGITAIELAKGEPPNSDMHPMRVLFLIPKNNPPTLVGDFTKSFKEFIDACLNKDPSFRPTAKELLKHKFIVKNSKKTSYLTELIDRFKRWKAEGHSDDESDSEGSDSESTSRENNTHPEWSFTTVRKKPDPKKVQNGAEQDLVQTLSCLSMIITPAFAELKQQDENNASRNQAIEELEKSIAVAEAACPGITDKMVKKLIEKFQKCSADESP
MAPKAPK5 (human), sequence (Q8IW41 whole entry, looked up): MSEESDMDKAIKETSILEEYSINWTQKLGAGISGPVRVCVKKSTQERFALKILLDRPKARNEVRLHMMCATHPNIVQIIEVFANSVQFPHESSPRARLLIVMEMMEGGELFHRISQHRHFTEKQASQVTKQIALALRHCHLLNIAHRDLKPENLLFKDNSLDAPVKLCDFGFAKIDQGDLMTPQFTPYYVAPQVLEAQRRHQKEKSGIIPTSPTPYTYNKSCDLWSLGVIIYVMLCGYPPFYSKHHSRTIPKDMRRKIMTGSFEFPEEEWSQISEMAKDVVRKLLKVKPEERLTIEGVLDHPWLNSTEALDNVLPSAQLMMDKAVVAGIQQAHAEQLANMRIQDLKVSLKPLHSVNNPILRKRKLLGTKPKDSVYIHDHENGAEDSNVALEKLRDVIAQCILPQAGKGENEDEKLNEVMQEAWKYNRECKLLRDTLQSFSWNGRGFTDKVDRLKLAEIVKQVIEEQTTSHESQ
FGFR1 (human), sequence (P11362 whole entry, looked up): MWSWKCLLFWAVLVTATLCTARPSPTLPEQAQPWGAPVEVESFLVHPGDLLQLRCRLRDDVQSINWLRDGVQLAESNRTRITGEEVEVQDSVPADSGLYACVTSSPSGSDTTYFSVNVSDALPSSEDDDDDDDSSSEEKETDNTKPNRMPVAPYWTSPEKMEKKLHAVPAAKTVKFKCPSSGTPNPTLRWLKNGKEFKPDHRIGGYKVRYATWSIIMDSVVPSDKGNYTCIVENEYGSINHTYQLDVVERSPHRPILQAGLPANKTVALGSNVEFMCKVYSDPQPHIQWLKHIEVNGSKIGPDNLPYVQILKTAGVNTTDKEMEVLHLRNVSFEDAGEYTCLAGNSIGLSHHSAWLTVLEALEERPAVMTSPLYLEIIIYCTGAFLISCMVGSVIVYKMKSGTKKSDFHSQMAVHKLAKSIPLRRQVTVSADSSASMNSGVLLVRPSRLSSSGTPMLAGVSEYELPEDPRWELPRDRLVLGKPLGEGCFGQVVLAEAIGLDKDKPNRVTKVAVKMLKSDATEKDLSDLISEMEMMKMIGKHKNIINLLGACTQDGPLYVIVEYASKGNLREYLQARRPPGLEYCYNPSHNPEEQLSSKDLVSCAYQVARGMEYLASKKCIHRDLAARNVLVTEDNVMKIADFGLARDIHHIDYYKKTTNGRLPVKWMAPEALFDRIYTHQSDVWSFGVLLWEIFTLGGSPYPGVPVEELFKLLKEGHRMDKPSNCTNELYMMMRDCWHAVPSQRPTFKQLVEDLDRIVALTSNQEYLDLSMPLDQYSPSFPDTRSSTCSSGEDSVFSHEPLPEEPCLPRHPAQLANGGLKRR
SGK1 (human), O00141 [S422D], sequence (O00141 whole entry S422D, looked up): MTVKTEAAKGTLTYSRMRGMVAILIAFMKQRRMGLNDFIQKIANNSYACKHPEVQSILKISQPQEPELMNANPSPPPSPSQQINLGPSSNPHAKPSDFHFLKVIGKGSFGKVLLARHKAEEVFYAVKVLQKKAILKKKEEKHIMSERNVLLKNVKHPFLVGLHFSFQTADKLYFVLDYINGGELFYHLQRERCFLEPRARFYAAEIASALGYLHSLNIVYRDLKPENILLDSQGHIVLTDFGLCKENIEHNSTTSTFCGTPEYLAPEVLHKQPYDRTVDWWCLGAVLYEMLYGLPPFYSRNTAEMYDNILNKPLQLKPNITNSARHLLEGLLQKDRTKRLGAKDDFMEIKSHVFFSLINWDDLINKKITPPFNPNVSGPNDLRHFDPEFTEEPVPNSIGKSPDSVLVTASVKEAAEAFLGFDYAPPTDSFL
PIM2 (human), sequence (Q9P1W9 whole entry, looked up): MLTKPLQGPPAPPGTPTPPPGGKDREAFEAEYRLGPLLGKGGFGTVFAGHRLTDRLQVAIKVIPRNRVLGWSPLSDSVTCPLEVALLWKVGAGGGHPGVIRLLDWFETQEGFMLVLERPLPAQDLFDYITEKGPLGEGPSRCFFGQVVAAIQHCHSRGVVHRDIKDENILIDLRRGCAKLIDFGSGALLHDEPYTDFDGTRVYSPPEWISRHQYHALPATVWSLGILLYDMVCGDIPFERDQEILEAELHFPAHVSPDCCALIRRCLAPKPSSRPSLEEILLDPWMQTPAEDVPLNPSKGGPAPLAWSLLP
BTK (human), sequence (Q06187 whole entry, looked up): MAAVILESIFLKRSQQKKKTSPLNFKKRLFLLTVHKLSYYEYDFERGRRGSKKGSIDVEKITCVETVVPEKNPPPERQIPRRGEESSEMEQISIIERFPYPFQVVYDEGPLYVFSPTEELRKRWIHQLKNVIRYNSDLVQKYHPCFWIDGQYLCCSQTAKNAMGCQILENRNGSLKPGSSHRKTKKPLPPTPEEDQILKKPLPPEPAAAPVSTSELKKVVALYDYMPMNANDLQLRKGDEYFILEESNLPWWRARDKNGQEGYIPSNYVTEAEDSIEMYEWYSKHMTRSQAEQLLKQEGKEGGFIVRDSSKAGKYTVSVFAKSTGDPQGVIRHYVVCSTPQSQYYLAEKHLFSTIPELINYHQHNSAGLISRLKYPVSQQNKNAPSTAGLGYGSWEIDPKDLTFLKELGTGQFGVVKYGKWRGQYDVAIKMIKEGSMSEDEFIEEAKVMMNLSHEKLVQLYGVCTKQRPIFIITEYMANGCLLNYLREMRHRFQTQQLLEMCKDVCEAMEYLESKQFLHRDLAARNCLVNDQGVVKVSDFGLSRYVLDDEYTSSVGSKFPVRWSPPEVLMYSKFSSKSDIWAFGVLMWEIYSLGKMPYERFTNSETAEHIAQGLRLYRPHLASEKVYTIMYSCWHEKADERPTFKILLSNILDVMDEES
EPHA2 (human), sequence (P29317 whole entry, looked up): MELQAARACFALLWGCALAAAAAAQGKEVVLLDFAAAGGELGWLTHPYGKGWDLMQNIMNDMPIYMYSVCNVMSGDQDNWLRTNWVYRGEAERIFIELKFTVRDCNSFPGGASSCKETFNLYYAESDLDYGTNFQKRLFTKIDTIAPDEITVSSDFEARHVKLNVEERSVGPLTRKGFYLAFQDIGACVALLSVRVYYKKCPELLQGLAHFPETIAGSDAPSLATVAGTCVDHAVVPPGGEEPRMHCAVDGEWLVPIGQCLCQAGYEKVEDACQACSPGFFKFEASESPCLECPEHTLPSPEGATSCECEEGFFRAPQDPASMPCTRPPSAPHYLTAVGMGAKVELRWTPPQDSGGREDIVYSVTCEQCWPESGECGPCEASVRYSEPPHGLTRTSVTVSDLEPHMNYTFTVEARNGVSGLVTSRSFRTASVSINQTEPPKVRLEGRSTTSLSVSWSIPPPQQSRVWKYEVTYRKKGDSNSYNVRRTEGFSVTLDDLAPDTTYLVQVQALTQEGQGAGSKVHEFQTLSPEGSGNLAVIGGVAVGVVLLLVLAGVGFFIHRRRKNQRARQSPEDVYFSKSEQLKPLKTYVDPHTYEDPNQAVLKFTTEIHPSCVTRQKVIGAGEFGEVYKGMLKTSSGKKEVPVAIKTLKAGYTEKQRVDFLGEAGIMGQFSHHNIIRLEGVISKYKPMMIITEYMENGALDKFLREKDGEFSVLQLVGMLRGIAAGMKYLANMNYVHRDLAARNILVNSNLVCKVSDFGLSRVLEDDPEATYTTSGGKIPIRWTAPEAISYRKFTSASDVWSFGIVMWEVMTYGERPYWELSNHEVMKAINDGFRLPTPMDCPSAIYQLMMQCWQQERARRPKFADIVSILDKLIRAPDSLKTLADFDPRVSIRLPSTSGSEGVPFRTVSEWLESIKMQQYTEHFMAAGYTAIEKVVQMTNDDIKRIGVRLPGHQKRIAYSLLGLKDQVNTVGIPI

residual activity ([1]; compound 1.0 µM): 90%
residual activity ([1]; compound 10.0 µM): 100%
residual activity ([2]; compound 0.1 µM): 90%
residual activity ([2]; compound 1.0 µM): 89%
residual activity ([2]; compound 10.0 µM): 53%
residual activity ([4]; compound 1.0 µM): 86%
residual activity ([4]; compound 10.0 µM): 97%
residual activity ([5]; compound 0.1 µM): 97%
residual activity ([5]; compound 1.0 µM): 74%
residual activity ([5]; compound 10.0 µM): 52%
residual activity ([6]; compound 1.0 µM): 84%
residual activity ([6]; compound 10.0 µM): 46%
residual activity ([7]; compound 1.0 µM): 94%
residual activity ([7]; compound 10.0 µM): 87%
residual activity ([8]; compound 1.0 µM): 100%
residual activity ([8]; compound 10.0 µM): 95%
residual activity ([9]; compound 1.0 µM): 102%
residual activity ([9]; compound 10.0 µM): 99%
residual activity ([10]; compound 1.0 µM): 97%
residual activity ([10]; compound 10.0 µM): 98%
residual activity ([11]; compound 0.1 µM): 94%
residual activity ([11]; compound 1.0 µM): 92%
residual activity ([11]; compound 10.0 µM): 86%
residual activity ([12]; compound 1.0 µM): 91%
residual activity ([12]; compound 10.0 µM): 55%
residual activity ([13]; compound 0.1 µM): 114%
residual activity ([13]; compound 1.0 µM): 106%
residual activity ([13]; compound 10.0 µM): 80%
residual activity ([14]; compound 1.0 µM): 102%
residual activity ([14]; compound 10.0 µM): 94%
residual activity ([15]; compound 0.1 µM): 96%
residual activity ([15]; compound 1.0 µM): 53%
residual activity ([15]; compound 10.0 µM): 14%
residual activity ([16]; compound 0.1 µM): 98%
residual activity ([16]; compound 1.0 µM): 94%
residual activity ([16]; compound 10.0 µM): 94%
residual activity ([17]; compound 0.1 µM): 97%
residual activity ([17]; compound 1.0 µM): 99%
residual activity ([17]; compound 10.0 µM): 84%
residual activity ([18]; compound 0.1 µM): 89%
residual activity ([18]; compound 1.0 µM): 94%
residual activity ([18]; compound 10.0 µM): 84%
residual activity ([19]; compound 0.1 µM): 88%
residual activity ([19]; compound 1.0 µM): 99%
residual activity ([19]; compound 10.0 µM): 79%
residual activity ([20]; compound 0.1 µM): 102%
residual activity ([20]; compound 1.0 µM): 106%
residual activity ([20]; compound 10.0 µM): 117%
residual activity ([21]; compound 0.1 µM): 95%
residual activity ([21]; compound 1.0 µM): 55%
residual activity ([21]; compound 10.0 µM): 24%
residual activity ([22]; compound 1.0 µM): 107%
residual activity ([22]; compound 10.0 µM): 108%
residual activity ([23]; compound 0.1 µM): 73%
residual activity ([23]; compound 1.0 µM): 100%
residual activity ([23]; compound 10.0 µM): 77%
residual activity ([24]; compound 1.0 µM): 109%
residual activity ([24]; compound 10.0 µM): 90%
residual activity ([25]; compound 0.1 µM): 101%
residual activity ([25]; compound 1.0 µM): 91%
residual activity ([25]; compound 10.0 µM): 105%
residual activity ([26]; compound 0.1 µM): 90%
residual activity ([26]; compound 1.0 µM): 102%
residual activity ([26]; compound 10.0 µM): 77%
residual activity ([27]; compound 0.1 µM): 103%
residual activity ([27]; compound 1.0 µM): 91%
residual activity ([27]; compound 10.0 µM): 68%
residual activity ([28]; compound 0.1 µM): 73%
residual activity ([28]; compound 1.0 µM): 77%
residual activity ([28]; compound 10.0 µM): 53%
residual activity ([29]; compound 1.0 µM): 105%
residual activity ([29]; compound 10.0 µM): 89%
residual activity ([30]; compound 0.1 µM): 86%
residual activity ([30]; compound 1.0 µM): 98%
residual activity ([30]; compound 10.0 µM): 96%
residual activity ([31]; compound 0.1 µM): 88%
residual activity ([31]; compound 1.0 µM): 100%
residual activity ([31]; compound 10.0 µM): 115%
residual activity ([32]; compound 0.1 µM): 90%
residual activity ([32]; compound 1.0 µM): 95%
residual activity ([32]; compound 10.0 µM): 78%
residual activity ([33]; compound 1.0 µM): 93%
residual activity ([33]; compound 10.0 µM): 90%
residual activity ([34]; compound 0.1 µM): 84%
residual activity ([34]; compound 1.0 µM): 95%
residual activity ([34]; compound 10.0 µM): 92%
residual activity ([35]; compound 0.1 µM): 80%
residual activity ([35]; compound 1.0 µM): 106%
residual activity ([35]; compound 10.0 µM): 84%
residual activity ([36]; compound 1.0 µM): 80%
residual activity ([36]; compound 10.0 µM): 86%
Structure (SMILES): O=C(Nc1ccccc1-c1cn2c(CN3CCNCC3)csc2n1)c1cnc2ccccc2n1
residual activity ([3]; compound 0.1 µM): 81%
residual activity ([3]; compound 1.0 µM): 96%
residual activity ([3]; compound 10.0 µM): 86%
